Data reported in ChEMBL document CHEMBL5150013, “The Repertoire of Small-Molecule PET Probes for Neuroinflammation Imaging: Challenges and Opportunities beyond TSPO” (J Med Chem, 2021).

What was measured:
[1] = primates, Brain, 4 min
[2] = rhesus monkey, in vivo, 7 min
[3] = rhesus monkey, in vivo, 7 min; remark: listed apart in the source
[4] = primates, Brain, 1.417 h
[5] = primates, Brain
in vivo [6] = conditions: C57BL/6, mouse
in vivo [7] = conditions: mouse
in vivo [8] = conditions: mouse; remark: listed apart in the source
[9] = biological target: T1, Prostaglandin G/H synthase 2 (Homo sapiens, UniProt P35354)
T1 sequence (P35354 whole entry): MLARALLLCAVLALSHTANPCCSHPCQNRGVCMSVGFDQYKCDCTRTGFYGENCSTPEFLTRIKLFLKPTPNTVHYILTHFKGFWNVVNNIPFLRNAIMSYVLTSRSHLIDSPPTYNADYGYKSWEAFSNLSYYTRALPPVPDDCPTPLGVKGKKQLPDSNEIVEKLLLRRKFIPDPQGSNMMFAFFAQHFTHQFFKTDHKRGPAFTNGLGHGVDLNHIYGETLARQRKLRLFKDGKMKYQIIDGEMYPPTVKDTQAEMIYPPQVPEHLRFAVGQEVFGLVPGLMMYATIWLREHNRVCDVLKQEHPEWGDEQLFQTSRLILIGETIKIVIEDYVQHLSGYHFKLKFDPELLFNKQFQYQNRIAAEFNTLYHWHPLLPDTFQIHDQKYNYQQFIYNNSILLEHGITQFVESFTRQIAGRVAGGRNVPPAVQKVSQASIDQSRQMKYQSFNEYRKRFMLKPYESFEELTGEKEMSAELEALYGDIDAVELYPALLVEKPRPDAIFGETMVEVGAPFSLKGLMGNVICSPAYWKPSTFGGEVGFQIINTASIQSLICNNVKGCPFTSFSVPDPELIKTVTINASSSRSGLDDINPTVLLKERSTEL

[10] = rat, in vivo, 2 h
[11] = biological target: Melatonin receptor type 1A (Homo sapiens, UniProt P48039)
Sequence of Melatonin receptor type 1A (P48039 whole entry): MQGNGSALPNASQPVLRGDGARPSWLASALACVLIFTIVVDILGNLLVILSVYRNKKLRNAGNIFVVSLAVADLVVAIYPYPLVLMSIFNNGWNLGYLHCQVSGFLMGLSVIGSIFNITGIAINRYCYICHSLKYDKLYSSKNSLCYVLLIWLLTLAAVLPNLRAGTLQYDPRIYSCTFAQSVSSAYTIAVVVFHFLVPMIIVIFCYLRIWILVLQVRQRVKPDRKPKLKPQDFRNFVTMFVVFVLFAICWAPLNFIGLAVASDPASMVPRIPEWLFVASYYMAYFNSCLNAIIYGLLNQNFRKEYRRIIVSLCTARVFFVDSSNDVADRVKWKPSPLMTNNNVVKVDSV

[12] = biological target: T2, Macrophage colony-stimulating factor 1 receptor (Homo sapiens, UniProt P07333)
T2 sequence (P07333 whole entry): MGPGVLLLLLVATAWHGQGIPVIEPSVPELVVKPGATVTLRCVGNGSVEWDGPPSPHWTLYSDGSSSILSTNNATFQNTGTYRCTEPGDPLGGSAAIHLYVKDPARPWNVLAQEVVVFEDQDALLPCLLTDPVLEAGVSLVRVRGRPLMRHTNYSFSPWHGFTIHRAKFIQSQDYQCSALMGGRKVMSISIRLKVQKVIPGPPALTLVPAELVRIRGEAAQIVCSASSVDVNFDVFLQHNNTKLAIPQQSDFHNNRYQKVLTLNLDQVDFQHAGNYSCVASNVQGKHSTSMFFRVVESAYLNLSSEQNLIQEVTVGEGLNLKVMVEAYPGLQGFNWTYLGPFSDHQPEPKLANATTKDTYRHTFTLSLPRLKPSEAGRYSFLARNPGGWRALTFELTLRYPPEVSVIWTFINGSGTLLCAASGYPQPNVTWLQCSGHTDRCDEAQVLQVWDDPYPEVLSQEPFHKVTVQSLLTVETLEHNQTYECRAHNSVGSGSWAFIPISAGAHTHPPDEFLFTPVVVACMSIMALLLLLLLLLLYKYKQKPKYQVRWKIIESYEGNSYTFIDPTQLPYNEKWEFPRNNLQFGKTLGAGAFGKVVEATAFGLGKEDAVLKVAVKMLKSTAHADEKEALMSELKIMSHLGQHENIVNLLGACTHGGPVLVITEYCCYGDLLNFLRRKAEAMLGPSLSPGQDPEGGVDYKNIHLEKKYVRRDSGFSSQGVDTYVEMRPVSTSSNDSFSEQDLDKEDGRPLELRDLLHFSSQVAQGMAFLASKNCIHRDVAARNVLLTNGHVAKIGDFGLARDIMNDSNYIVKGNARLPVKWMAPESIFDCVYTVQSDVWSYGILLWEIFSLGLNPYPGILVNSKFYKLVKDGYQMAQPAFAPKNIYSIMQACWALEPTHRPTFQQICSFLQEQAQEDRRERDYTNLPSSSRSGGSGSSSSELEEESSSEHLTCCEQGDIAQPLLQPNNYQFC

[13] = biological target: T2, Macrophage colony-stimulating factor 1 receptor; remark: listed apart in the source
[14] = biological target: Prostaglandin G/H synthase 1 (Homo sapiens, UniProt P23219)
Sequence of Prostaglandin G/H synthase 1 (P23219 whole entry): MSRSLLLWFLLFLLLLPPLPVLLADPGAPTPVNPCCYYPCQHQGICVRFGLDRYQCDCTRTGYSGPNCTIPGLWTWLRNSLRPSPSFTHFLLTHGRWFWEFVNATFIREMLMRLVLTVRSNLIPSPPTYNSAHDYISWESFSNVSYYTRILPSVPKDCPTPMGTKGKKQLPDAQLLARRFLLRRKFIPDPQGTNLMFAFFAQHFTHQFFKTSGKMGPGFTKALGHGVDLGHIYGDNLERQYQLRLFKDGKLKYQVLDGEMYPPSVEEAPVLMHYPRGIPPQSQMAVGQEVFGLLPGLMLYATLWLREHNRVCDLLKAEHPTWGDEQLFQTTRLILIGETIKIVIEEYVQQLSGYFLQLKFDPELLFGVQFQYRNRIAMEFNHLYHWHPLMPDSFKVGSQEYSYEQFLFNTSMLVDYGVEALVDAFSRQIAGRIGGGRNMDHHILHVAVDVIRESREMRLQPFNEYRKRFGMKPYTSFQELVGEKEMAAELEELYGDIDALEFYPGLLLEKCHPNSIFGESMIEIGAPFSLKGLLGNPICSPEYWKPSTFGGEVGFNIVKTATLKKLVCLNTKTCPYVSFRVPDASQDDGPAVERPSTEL

[15] = mouse, in vivo
in vivo [16] = conditions: C3H, mouse, iv, 10 mg/kg
in vivo [17] = conditions: C3H, mouse, iv, 10 mg/kg; remark: listed apart in the source
P2X purinoceptor 7 [18] = biological target: T3, P2X purinoceptor 7 (Homo sapiens, UniProt Q99572)
T3 sequence (Q99572 whole entry): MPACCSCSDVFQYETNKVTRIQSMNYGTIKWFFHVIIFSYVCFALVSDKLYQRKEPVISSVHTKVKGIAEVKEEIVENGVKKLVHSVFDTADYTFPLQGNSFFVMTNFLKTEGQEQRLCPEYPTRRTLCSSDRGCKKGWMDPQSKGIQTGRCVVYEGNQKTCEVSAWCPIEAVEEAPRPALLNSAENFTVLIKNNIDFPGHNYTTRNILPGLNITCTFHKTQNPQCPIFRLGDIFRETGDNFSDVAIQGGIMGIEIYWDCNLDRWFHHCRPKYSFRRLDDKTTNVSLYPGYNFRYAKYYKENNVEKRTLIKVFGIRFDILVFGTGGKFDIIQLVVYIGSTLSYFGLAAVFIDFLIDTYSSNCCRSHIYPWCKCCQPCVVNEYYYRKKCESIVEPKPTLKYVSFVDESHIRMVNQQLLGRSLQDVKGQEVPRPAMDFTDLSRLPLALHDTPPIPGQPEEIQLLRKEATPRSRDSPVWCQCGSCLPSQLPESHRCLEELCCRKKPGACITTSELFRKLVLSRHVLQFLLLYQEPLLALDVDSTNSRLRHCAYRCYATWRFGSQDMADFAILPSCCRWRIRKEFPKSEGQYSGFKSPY

P2Y purinoceptor 12 = P2Y purinoceptor 12 (Homo sapiens, UniProt Q9H244); assay type: functional
Sequence of P2Y purinoceptor 12 (Q9H244 whole entry): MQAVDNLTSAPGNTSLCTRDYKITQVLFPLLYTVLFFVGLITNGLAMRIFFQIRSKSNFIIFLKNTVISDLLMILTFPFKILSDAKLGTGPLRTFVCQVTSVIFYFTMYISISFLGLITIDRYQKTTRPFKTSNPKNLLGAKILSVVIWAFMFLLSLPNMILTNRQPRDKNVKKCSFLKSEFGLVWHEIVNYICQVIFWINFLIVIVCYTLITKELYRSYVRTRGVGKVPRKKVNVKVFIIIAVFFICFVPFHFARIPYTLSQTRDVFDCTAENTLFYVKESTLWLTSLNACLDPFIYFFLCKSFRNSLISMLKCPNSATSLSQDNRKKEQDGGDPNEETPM

in vivo [19] = conditions: mouse, hcc4006
in vivo [20] = conditions: mouse; remark: listed apart in the source
[21] = mouse, in vivo; remark: listed apart in the source
[22] = mouse, in vivo, 20 min
[23] = mouse, in vivo, 0.05 h
[24] = primates, Brain; remark: listed apart in the source
[25] = cynomolgus monkey, in vivo, 2 h
[26] = biological target: Sphingosine 1-phosphate receptor 2 (Homo sapiens, UniProt O95136)
Sequence of Sphingosine 1-phosphate receptor 2 (O95136 whole entry): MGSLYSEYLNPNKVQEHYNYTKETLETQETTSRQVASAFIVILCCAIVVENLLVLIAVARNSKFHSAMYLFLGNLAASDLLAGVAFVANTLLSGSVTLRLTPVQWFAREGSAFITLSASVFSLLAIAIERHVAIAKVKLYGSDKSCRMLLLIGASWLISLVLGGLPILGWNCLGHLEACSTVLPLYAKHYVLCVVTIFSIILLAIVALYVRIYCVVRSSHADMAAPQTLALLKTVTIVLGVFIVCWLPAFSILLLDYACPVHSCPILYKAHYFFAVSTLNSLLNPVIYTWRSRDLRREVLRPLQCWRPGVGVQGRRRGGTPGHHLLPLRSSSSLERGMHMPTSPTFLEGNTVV

[27] = mouse, in vivo, 0.5 h
[28] = mouse, in vivo, 0.5 h; remark: listed apart in the source
[29] = rhesus monkey, in vivo
[30] = mouse, in vivo; remark: listed apart in the source
in vivo [31] = conditions: mouse; remark: listed apart in the source
[32] = mouse, in vivo, 10 min
in vivo [33] = conditions: rat
[34] = mouse, in vivo; remark: listed apart in the source
[35] = human, Brain, 2 min
P2X purinoceptor 7 [36] = biological target: T3, P2X purinoceptor 7; remark: listed apart in the source
Cannabinoid receptor 2 = Cannabinoid receptor 2 (Homo sapiens, UniProt P34972)
Sequence of Cannabinoid receptor 2 (P34972 whole entry): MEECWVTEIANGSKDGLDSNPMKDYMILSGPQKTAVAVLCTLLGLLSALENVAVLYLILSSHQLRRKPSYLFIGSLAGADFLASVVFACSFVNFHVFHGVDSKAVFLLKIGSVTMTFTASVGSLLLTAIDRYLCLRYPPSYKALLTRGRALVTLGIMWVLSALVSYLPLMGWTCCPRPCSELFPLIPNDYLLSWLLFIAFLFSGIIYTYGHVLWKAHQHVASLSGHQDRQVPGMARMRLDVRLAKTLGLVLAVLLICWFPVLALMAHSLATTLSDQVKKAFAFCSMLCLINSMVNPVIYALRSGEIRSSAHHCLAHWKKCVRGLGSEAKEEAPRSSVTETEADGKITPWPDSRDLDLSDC

[37] = biological target: T4, Amine oxidase [flavin-containing] B (Homo sapiens, UniProt P27338)
T4 sequence (P27338 whole entry): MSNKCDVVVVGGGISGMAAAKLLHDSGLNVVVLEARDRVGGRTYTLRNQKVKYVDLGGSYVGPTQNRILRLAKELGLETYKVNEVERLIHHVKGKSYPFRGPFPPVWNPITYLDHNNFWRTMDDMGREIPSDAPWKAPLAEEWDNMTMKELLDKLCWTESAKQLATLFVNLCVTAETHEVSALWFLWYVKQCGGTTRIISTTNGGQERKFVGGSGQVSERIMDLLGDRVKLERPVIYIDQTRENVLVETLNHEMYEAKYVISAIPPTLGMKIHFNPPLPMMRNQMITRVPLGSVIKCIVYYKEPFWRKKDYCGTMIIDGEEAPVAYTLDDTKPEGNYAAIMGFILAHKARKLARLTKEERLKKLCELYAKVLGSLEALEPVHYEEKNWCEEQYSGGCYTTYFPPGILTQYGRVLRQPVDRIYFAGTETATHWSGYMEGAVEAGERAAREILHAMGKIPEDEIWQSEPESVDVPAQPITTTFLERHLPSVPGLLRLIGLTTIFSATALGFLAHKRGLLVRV

[38] = papio papio, in vivo
[39] = biological target: Sphingosine 1-phosphate receptor 1 (Homo sapiens, UniProt P21453)
Sequence of Sphingosine 1-phosphate receptor 1 (P21453 whole entry): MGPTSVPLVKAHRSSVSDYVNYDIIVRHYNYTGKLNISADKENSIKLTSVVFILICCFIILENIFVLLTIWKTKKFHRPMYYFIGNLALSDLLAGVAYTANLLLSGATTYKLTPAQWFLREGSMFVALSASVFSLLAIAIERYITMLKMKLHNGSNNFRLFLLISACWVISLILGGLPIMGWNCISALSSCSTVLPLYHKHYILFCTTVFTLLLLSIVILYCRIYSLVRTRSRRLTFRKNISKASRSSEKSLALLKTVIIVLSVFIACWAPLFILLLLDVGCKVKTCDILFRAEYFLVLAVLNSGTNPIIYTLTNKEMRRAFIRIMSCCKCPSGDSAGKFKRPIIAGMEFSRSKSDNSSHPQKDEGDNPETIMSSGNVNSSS

[40] = rhesus monkey, in vivo; remark: listed apart in the source
physchem = conditions: octanol/water
[41] = rhesus monkey, in vivo; remark: listed apart in the source
[42] = mouse, in vivo; remark: listed apart in the source
[43] = biological target: T4, Amine oxidase [flavin-containing] B; remark: listed apart in the source
[44] = papio anubis, in vivo
[45] = papio anubis, in vivo; remark: listed apart in the source
[46] = primates, Brain, 5 min

OCc1ccc(-c2noc(-c3ccc(OCC[18F])c(C(F)(F)F)c3)n2)cc1
SUV [1]: 3.8

[2H]C([2H])([18F])Oc1nc(-c2ccc(OC)cc2)n(-c2ccc(OC)cc2)n1
SUV [2]: 4.11
SUV [3]: 1.05
SUV [4]: 1.99
SUV [5]: 54%

Cc1ccccc1-c1ccc(-c2nc(-c3ccc(CN(C)CCC(=O)O)c(F)c3)no2)cc1C(F)(F)F
tissue uptake at 1 h (in vivo [6]): 7 %ID/g

CS(=O)(=O)c1ccc(-c2cc(C(F)(F)F)nc(NCc3ccc([18F])cc3)n2)cc1
tissue uptake at 1 h (in vivo [7]): 1.74 %ID/g
tissue uptake at 1 h (in vivo [8]): 3.79 %ID/g

CS(=O)(=O)c1ccc(-c2ccsc2-c2ccc(F)cc2)cc1
Ki [9]: 250 nM
SUV [10]: 0.17

O=C(c1ccc([18F])cc1)N(Cc1ccccc1)C1CCCCC1
Ki [11]: 90 nM

CCOc1cc2ccc(C(N)=O)c(Nc3ccc(F)cc3F)c2cc1N1CCN([11CH3])CC1
Ki [12]: 8 nM
IC50 [13]: 6 nM

Cc1ccc(-n2nc(C(F)(F)F)cc2-c2ccc(S(=O)(=O)Nc3ccc([18F])cc3)cc2)cc1
IC50 [14]: 100000 nM

[11CH3]N1CCN(c2ccc(NC(=O)c3ccc(C#N)o3)c(N3CCCCC3)c2)CC1
SUV [15]: 0.6

CN([11CH3])CCc1ccccc1
tissue uptake at 1 min (in vivo [16]): 7.9 %ID/g
tissue uptake at 1 h (in vivo [17]): 2.8 %ID/g

[11CH3]Oc1ccc(-c2cnc(Cl)n2-c2ccc(S(N)(=O)=O)cc2)cc1F
IC50 [14]: 10000 nM

N#C/N=C(/NCc1ccc([18F])cc1)Nc1cccc2ncccc12
Ki (P2X purinoceptor 7 [18]): 2.9 nM

[11CH3]Oc1ccc(Cl)c(C(=O)NCC23CC4(F)CC(F)(CC(F)(C4)C2)C3)c1
EC50 (P2Y purinoceptor 12): 60 nM

Cc1ccc(-c2ccc3cc(OC[C@H](O)C[18F])ccc3n2)cn1
tissue uptake at 2 min (in vivo [19]): 7.85 %ID/g
tissue uptake at 2 min (in vivo [20]): 0.2 %ID/g

CN1c2cc(N)ccc2-c2ccc(N)cc2C1c1ccc(OCC[18F])cc1 (configuration not stated)
Drug uptake [21]: 10 %ID/cm3
Drug uptake [22]: 150%

[13CH3]N1C=C(C(N)=O)Cc2ccccc21
SUV [23]: 3.5

OCCOCCOCc1ccc(-c2noc(-c3ccc(OCC[18F])c(C(F)(F)F)c3)n2)cc1
SUV [24]: 0.7

COc1ccc(-n2nc(OCC(F)(F)F)nc2-c2ccc(O[11CH3])cc2)cc1
SUV [24]: 4.29
SUV [4]: 1.99
SUV [5]: 54%

C#CCN(C)[C@H](C[18F])Cc1ccccc1
SUV [25]: 6

Cc1nn(C)c2nc(NNC(=O)C(C)c3cc(Cl)nc(O[11CH3])c3)cc(C(C)C)c12 (configuration not stated)
IC50 [26]: 9.52 nM
SUV [27]: 0.58
SUV [28]: 0.48

[11CH3]Oc1ccc(Cc2ccncc2)nc1-c1cccc([N+](=O)[O-])c1
Vd [29]: 48%

O=C1Nc2c(Cl)ccc(OCC[18F])c2C2(CCCCC2)N1
SUV [30]: 1.74
tissue uptake (in vivo [31]): 5 %ID/g

O=C(O)C1CN(Cc2ccc(-c3noc(-c4ccc(OCC[18F])c(C(F)(F)F)c4)n3)cc2)C1
SUV [32]: 7
tissue uptake at 5 min (in vivo [33]): 0.027 %ID/g

COC(=O)C([11CH3])c1cccc(C(=O)c2ccccc2)c1 (configuration not stated)
IC50 [14]: 47 nM
SUV [34]: 0.97
SUV [35]: 1.5

CS(=O)(=O)c1ccc(-n2c(-c3ccc(O[11CH3])c(F)c3)cnc2Cl)cc1
IC50 [14]: 3300 nM

[11CH3]N1C(=O)CC[C@H]1C(=O)NCc1cccc(C(F)(F)F)c1Cl
IC50 (P2X purinoceptor 7 [36]): 3 nM

COc1ccc(CC(=O)NC(N/C(=N/C#N)Nc2cccc3ncccc23)C(C)(C)C)cc1O[11CH3] (configuration not stated)
IC50 (P2X purinoceptor 7 [36]): 40 nM

COc1ccc(-c2nc(O[11CH3])nn2-c2ccc(OC)cc2)cc1
SUV [24]: 4.26
SUV [4]: 0.62

[11CH3]Oc1ccc(Cc2cn[nH]c2)nc1-c1cccc([N+](=O)[O-])c1
Vd [29]: 37%

CN1c2cc(N)ccc2-c2ccc(N)cc2C1c1ccc([18F])cc1 (configuration not stated)
SUV [30]: 2.3

CCCCOc1c(OC)ccc2cc(C(=O)NC3CCCCC3)c(=O)[nH]c12
Ki (Cannabinoid receptor 2): 9.6 nM

N#CCCn1nc(-c2ccc(OCc3ccccc3)cc2)o[11c]1=O
IC50 [37]: 4 nM
Drug uptake [38]: 70%

[11CH3]Oc1ccc(-c2c(-c3ccc(S(N)(=O)=O)cc3)[nH]c3ccccc23)cc1
IC50 [14]: 10000 nM

OCC(O)c1ccc(-c2noc(-c3ccc(OCC[18F])c(C(F)(F)F)c3)n2)cc1 (configuration not stated)
IC50 [39]: 15.4 nM
SUV [1]: 2.5

NS(=O)(=O)c1ccc(-n2nc3ccccc3c2-c2ccc([18F])cc2)cc1
IC50 [14]: 30000 nM

CS(=O)(=O)c1ccc(-c2cc(O[11CH3])nc(NCc3cccs3)n2)cc1
IC50 [14]: > 1000 nM
Drug uptake [40]: 41%

CCOCCn1cc(C(=O)NC23CC4CC(CC(C4)C2)C3)c(=O)c2cccc(OC)c21
logD (physchem): 2.8

Cc1nn(C)c2nc(NNC(=O)Nc3cc(Cl)nc(Cl)c3)cc(C(C)C)c12
IC50 [26]: 68.5 nM

OCc1cn(Cc2ccc(-c3noc(-c4ccc(OCC[18F])c(C(F)(F)F)c4)n3)cc2)nn1
tissue uptake at 5 min (in vivo [33]): 0.46 %ID/g

COc1ccc(COc2ccc(Cc3cnc(N)nc3N)cc2OC)cc1 [GW632580X]
SUV [30]: <= 1.2
SUV [41]: <= 3.1

CCCCNc1ncc(-c2cccc([18F])n2)c(NC2CCC(O)CC2)n1 (configuration not stated)
Drug uptake [42]: 35%

COCC1CN(c2noc3cc(OCCCC(F)(F)F)ccc23)[11C](=O)O1 (configuration not stated)
Ki [43]: 2.9 nM
Vd [44]: 10.3 ml/cm3
Vd [45]: 10.9 ml/cm3

OCCOCc1ccc(-c2noc(-c3ccc(OCC[18F])c(C(F)(F)F)c3)n2)cc1
SUV [46]: 3.2
